This is an account of results in ChEMBL document CHEMBL1136412, “Imidazo[4,5-c]pyridines as corticotropin releasing factor receptor ligands” (Bioorg Med Chem Lett, 2003).

Bounds are passed on as bounds.

Data set [1] in a line: Partition coefficient (logP). In kind it is physicochemical. Particulars: octanol/water.
Data set [2] can be described thus: pKa value of the compound. In kind it is physicochemical.
Data set [3] addresses T1, Corticotropin releasing factor receptor (Rattus norvegicus, UniProt P47866+P35353). Nature of the data set: In vitro binding affinity against Corticotropin releasing factor receptor in rat cortical homogenates.
For data set [4], the system named is Canis familiaris. Nature of the data set: Area under the curve at a dose of 1 mg/kg (oral). In kind it is ADME, organism-based, Canis lupus familiaris. The arrangement: dose 1 mg/kg. To be noted: dog, in vivo.
Data set [5] deals with Canis familiaris. In words: Area under the curve at i.v. dose of 0.2 mg/kg. In kind it is ADME, organism-based, Canis lupus familiaris. Particulars: dog, in vivo, iv. Also noted: dose 0.2 mg/kg, route intravenous.
Data set [6] in a line: Maximal plasma concentration at a dose of 1 mg/kg (oral). The class given is ADME, organism-based, Canis lupus familiaris. The arrangement: route oral, dose 1 mg/kg. To be noted: dog.
The nature of data set [7]: Oral bioavailability at a dose of 1 mg/kg in dogs. Particulars: dog, in vivo. The class given is ADME, organism-based, Canis lupus familiaris.
Data set [8] can be described thus: (§1) Half life was evaluated in dog. In kind it is ADME, organism-based, Canis lupus familiaris. To be noted: in vivo.
For data set [9], the species on record is Canis familiaris. The description is as §1. In kind it is ADME, organism-based, Canis lupus familiaris. Particulars: in vivo.
Data set [10] is described as follows: Clearance value at a dose of 0.2 mg/kg i.v. In kind it is ADME, organism-based, Canis lupus familiaris. The arrangement: dose 0.2 mg/kg, route intravenous. To be noted: dog, in vivo, iv, read-out: Cls (converted).
Data set [11] is described as follows: Steady state volume of distribution at a dose of 0.2 mg/kg i.v. The arrangement: dose 0.2 mg/kg, route intravenous. The class given is ADME, organism-based, Canis lupus familiaris. Particulars: dog, in vivo, iv, read-out: Vss.
Data set [12] addresses T1, Corticotropin releasing factor receptor. Nature of the data set: In vitro binding affinity against CRF receptor in rat cortical homogenates.

The compound `CCc1nc2c(-c3ccc(Cl)cc3Cl)ccnc2n1C(CC)C1CC1` (stereo not drawn) registered a lipophilicity (logP) in data set [1] of 5.56. The pKa in [2] amounted to 3.86.

In data set [3], `CCc1nc2c(-c3ccc(Cl)cc3C)nccc2n1C(CC)C1CC1` (stereo not drawn) yielded a Ki of 14 nM.

In data set [1], `CCCC(C)n1c(CC)nc2c(-c3ccc(OC(F)F)cc3Cl)ccnc21` (stereo not drawn) gave a logP of 5.35.

`CCc1nc2c(-c3ccc(C(F)(F)F)cc3Cl)nccc2n1C(CC)C1CC1` (stereo not drawn) came in with a Ki in data set [3] of 2.9 nM.

In turn, `CCCC(C)n1c(CC)nc2c(-c3ccc(Cl)cc3C)nccc21` (stereo not drawn) registered a Ki in data set [3] of 9.1 nM.

As to `CCC[C@@H](C)n1c(CC)nc2c(-c3ccc(OC(F)(F)F)cc3Cl)nccc21`, the Ki in data set [3] was found to be 1.9 nM.

Compound `CCc1nc2c(-c3ccc(Cl)cc3Cl)nccc2n1C(CC)C1CC1` (stereo not drawn) came in with a logP in data set [1] of 4.1.

Compound `CCc1nc2c(-c3ccc(Cl)cc3C(F)(F)F)nccc2n1C(CC)C1CC1` (stereo not drawn) came in with a Ki in data set [3] of 4.4 nM. In other words, the single-digit nanomolar range.

In turn, `CCCC(C)n1c(CC)nc2c(-c3ccc(C(F)(F)F)cc3Cl)nccc21` (stereo not drawn) came in with a Ki in data set [3] of 3.5 nM.

For `CCCC(C)n1c(CC)nc2c(-c3ccc(OC(F)(F)F)cc3Cl)nccc21` (stereo not drawn), the logP in [1] stood at 4.62. Besides, in [2], the pKa came out at 5.09. Also, the Ki in [3] is recorded as 2.8 nM.

On to `CCc1nc2c(-c3ccc(Cl)cc3Cl)ncnc2n1C(C)C1CC1` (stereo not drawn), for which, in [1], the logP is 4.33. The same compound showed a pKa in [2] of less than 3.

The compound `CCc1nc2c(-c3ccc(C(F)(F)F)cc3Cl)nccc2n1C(CC)CC` registered a Ki in data set [3] of 5.4 nM.

Turning to `CCCC(C)n1c(CC)nc2c(-c3ccc(OC(F)F)cc3C)nccc21` (stereo not drawn), the Ki in [3] is recorded as 9 nM. Against the preceding compound, the Ki is about 1.7-fold higher.

In turn, `CCCC(C)n1c(CC)nc2c(-c3ccc(Cl)cc3Cl)nccc21` (stereo not drawn) came in with a Ki in data set [3] of 3 nM.

With `CCC[C@H](C)n1c(CC)nc2c(-c3ccc(OC(F)(F)F)cc3Cl)nccc21`, the results for the AUC in the data set with Canis familiaris [4] and with Canis familiaris [5] were 0.569 µM·h and 0.341 µM·h, respectively. In addition, the Cmax in data set [6] was 92.4 nM. In addition, the bioavailability in data set [7] turned out to be 33%. The compound further showed a half-life in [8] of 15.1 h. Moreover, the T1/2 in the data set listed under Canis familiaris [9] was 9.4 h. The clearance in data set [10] was 23.3 mL/min/kg. Besides, the Vd in data set [11] turned out to be 19.1 L/kg. Also, in data set [3], the Ki turned out to be 2.3 nM.

Compound `CCc1nc2c(-c3ccc(OC(F)(F)F)cc3Cl)nccc2n1C(C)CC` (stereo not drawn) had a Ki in data set [12] of 7.8 nM.
